Experimental data: US20250129028A1, “COMPOUNDS AND METHODS FOR YAP/TEAD MODULATION AND INDICATIONS THEREFOR” (Opna Bio SA, priority 2022, published 2025)

system: TEAD-dependent transcription; assay: TEAD-dependent transcription cell-based reporter assay (MSTO-211H+12XGTIIC luciferase); set-up: species or system human; settings: Homo sapiens; MSTO-211H+12XGTIIC cell line, luciferase signal normalized to cell viability, 24 hours compound incubation; read-out: MSTO-211H GMean IC50 (uM) Cell Assay Reporter Cell Variant: TEAD
How it was run: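 MSTO-211H mesothelioma cells stably carrying a 12xGTIIC TEAD-response-element luciferase reporter, treated with serial compound dilutions for 24 h at 37 °C. Luminescence normalized to CellTiter-Fluor viability signal; % inhibition versus DMSO and 20 μM K-975 controls, IC50 by nonlinear regression.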

Structure (SMILES)	IC50 [µM]
O=C(Cc1cc[nH]n1)N1CCc2ccc(Oc3ccc(C(F)(F)F)cc3)cc2C1 [P-0133, 2-(1H-pyrazol-3-yl)-1-(7-(4-(trifluoromethyl)-phenoxy)-3,4-dihydroiso-quinolin-2(1H)-yl)ethan-1-one]	0.001 to 10
CS(=O)(=O)c1ccc(C(=O)N2CCc3ccc(Oc4ccc(C(F)(F)F)cc4)cc3C2)s1 [P-0084, (5-(methylsulfonyl)thio-phen-2-yl)(7-(4-(trifluoro-methyl)phenoxy)-3,4-dihydroisoquinolin-2(1H)-yl)methanone]	0.001 to 10
CC(C)C(=O)N1CCc2c(cccc2Oc2ccc(C(F)(F)F)cc2)C1 [P-0234, 2-methyl-1-(5-(4-(trifluoromethyl)phen-oxy)-3,4-dihydroisoquin-olin-2(1H)-yl)propan-1-one]	0.001 to 10
CCN(CC)C(=O)N1CCc2ccc(Oc3ccc(C(F)(F)F)cc3)cc2C1 [P-0035, N,N-diethyl-7-(4-(trifluoromethyl)phen-oxy)-3,4-dihydroisoquin-oline-2(1H)-carboxamide]	0.001 to 10
CNS(=O)(=O)N1CCc2ccc(Oc3ccc(C(F)(F)F)cc3)cc2C1 [P-0012, N-methyl-7-(4-(trifluoro-methyl)phenoxy)-3,4-dihydroisoquinoline-2(1H)-sulfonamide]	0.001 to 10
O=C1CCC(CC(=O)N2CCc3ccc(Oc4ccc(C(F)(F)F)cc4)cc3C2)CN1 (stereo not shown) [P-0132, 5-(2-oxo-2-(7-(4-(trifluoromethyl)phen-oxy)-3,4-dihydroisoquin-olin-2(1H)-yl)ethyl)piper-idin-2-one]	0.001 to 10
CCS(=O)(=O)N1CCc2ccc(Oc3ccc(C(F)(F)F)cc3)cc2C1 [P-0002, 2-(ethylsulfonyl)-7-(4-(trifluoromethyl)phen-oxy)-1,2,3,4-tetrahydro-isoquinoline]	0.001 to 10
O=C(CC1CS(=O)(=O)C1)N1CCc2ccc(Oc3ccc(C(F)(F)F)cc3)cc2C1 [P-0072, 2-(1,1-dioxidothietan-3-yl)-1-(7-(4-(trifluoro-methyl)phenoxy)-3,4-dihydroisoquinolin-2(1H)-yl)ethan-1-one]	0.001 to 10
NC(=O)c1cccc(N2CCc3ccc(Oc4ccc(C(F)(F)F)cc4)cc3C2)n1 [P-0228, 6-(7-(4-(trifluoromethyl)-phenoxy)-3,4-dihydro-isoquinolin-2(1H)-yl)-picolinamide]	0.001 to 10
O=C(Cc1cn[nH]c1)N1CCc2c(cccc2Oc2ccc(C(F)(F)F)cc2)C1 [P-0247, 2-(1H-pyrazol-4-yl)-1-(5-(4-(trifluoromethyl)-phenoxy)-3,4-dihydroiso-quinolin-2(1H)-yl)ethan-1-one]	0.001 to 10
NC(=O)CCS(=O)(=O)N1CCc2ccc(Oc3ccc(C(F)(F)F)cc3)cc2C1 [P-0051, 3-((7-(4-(trifluorometh-yl)phenoxy)-3,4-dihydro-isoquinolin-2(1H)-yl)sul-fonyl)propanamide]	0.001 to 10
CNCCC(=O)N1CCc2ccc(Oc3ccc(C(F)(F)F)cc3)cc2C1 [P-0068, 3-(methylamino)-1-(7-(4-(trifluoromethyl)phen-oxy)-3,4-dihydroisoquin-olin-2(1H)-yl)propan-1-one]	0.001 to 10
O=C(CN1C(=O)CCC1=O)N1CCc2ccc(Oc3ccc(C(F)(F)F)cc3)cc2C1 [P-0044, 1-(2-oxo-2-(7-(4-(trifluoromethyl)phen-oxy)-3,4-dihydroiso-quinolin-2(1H)-yl)-ethyl)pyrrolidine-2,5-dione]	0.001 to 10
Cc1noc(CCC(=O)N2CCc3ccc(Oc4ccc(C(F)(F)F)cc4)cc3C2)n1 [P-0062, 3-(3-methyl-1,2,4-oxadi-azol-5-yl)-1-(7-(4-(trifluoromethyl)phen-oxy)-3,4-dihydroisoquin-olin-2(1H)-yl)propan-1-one]	0.001 to 10
NC(=O)N1CCC(C(=O)N2CCc3c(cccc3Oc3ccc(C(F)(F)F)cc3)C2)C1 (stereo not shown) [P-0256, 3-(5-(4-(trifluorometh-yl)phenoxy)-1,2,3,4-tetrahydroisoquinoline-2-carbonyl)pyrrolidine-1-carboxamide]	0.001 to 10
O=C(c1cocn1)N1CCc2ccc(Oc3ccc(C(F)(F)F)cc3)cc2C1 [P-0108, oxazol-4-yl(7-(4-(trifluoromethyl)phen-oxy)-3,4-dihydroisoquin-olin-2(1H)-yl)methanone]	0.001 to 10
CS(=O)(=O)CCCN1CCc2ccc(Oc3ccc(C(F)(F)F)cc3)cc2C1 [P-0053, 2-(3-(methylsulfonyl)-propyl)-7-(4-(trifluoro-methyl)phenoxy)-1,2,3,4-tetrahydroisoquinoline]	0.001 to 10
O=C=CCC(=O)N1CCc2ccc(Oc3ccc(C(F)(F)F)cc3)cc2C1 [P-0166, 4-(7-(4-(trifluoromethyl)-phenoxy)-3,4-dihydroiso-quinolin-2(1H)-yl)but-1-ene-1,4-dione]	0.001 to 10
NC1=NC(=O)C(CC(=O)N2CCc3ccc(Oc4ccc(C(F)(F)F)cc4)cc3C2)S1 (stereo not shown) [P-0070, 2-amino-5-(2-oxo-2-(7-(4-(trifluoromethyl)-phenoxy)-3,4-dihydroiso-quinolin-2(1H)-yl)ethyl)-thiazol-4(5H)-one]	0.001 to 10

Structure (SMILES)	IC50 [µM]
CNC(=O)N1CCc2ccc(Oc3ccc(C(F)(F)F)cc3)cc2C1 [P-0016, N-methyl-7-(4-(trifluoro-methyl)phenoxy)-3,4-dihydroisoquinoline-2(1H)-carboxamide]	0.001 to 10
CC(C)S(=O)(=O)N1CCc2c(cccc2Oc2ccc(C(F)(F)F)cc2)C1 [P-0235, 2-(isopropylsulfonyl)-5-(4-(trifluoromethyl)phen-oxy)-1,2,3,4-tetrahydro-isoquinoline]	0.001 to 10
O=C(CCc1cn[nH]c1)N1CCc2c(cccc2Oc2ccc(C(F)(F)F)cc2)C1 [P-0248, 3-(1H-pyrazol-4-yl)-1-(5-(4-(trifluoromethyl)-phenoxy)-3,4-dihydro-isoquinolin-2(1H)-yl)pro-pan-1-one]	0.001 to 10
C=CC(=O)N1CCC(C(=O)N2CCc3c(cccc3Oc3ccc(C(F)(F)F)cc3)C2)C1 (stereo not shown) [P-0253, 1-(3-(5-(4-(trifluorometh-yl)phenoxy)-1,2,3,4-tetrahydroisoquinoline-2-carbonyl)pyrrolidin-1-yl)prop-2-en-1-one]	0.001 to 10
CC(C)NC(=O)N1CCc2ccc(Oc3ccc(C(F)(F)F)cc3)cc2C1 [P-0019, N-isopropyl-7-(4-(trifluoromethyl)phen-oxy)-3,4-dihydroiso-quinoline-2(1H)-carbox-amide]	0.001 to 10
O=S(=O)(C1CCCC1)N1CCc2c(cccc2Oc2ccc(C(F)(F)F)cc2)C1 [P-0236, 2-(cyclopentylsulfonyl)-5-(4-(trifluoromethyl)-phenoxy)-1,2,3,4-tetra-hydroisoquinoline]	0.001 to 10
NCC(=O)N1CCc2ccc(Oc3ccc(C(F)(F)F)c(F)c3)cc2C1 [P-0113, 2-amino-1-(7-(3-fluoro-4-(trifluoromethyl)phen-oxy)-3,4-dihydroisoquin-olin-2(1H)-yl)ethan-1-one]	0.001 to 10
CN1CCC(C(=O)N2CCc3ccc(Oc4ccc(C(F)(F)F)c(F)c4)cc3C2)CC1 [P-0109, (7-(3-fluoro-4-(trifluoro-methyl)phenoxy)-3,4-dihydroisoquinolin-2(1H)-yl)(1-methylpiper-idin-4-yl)methanone]	0.001 to 10
CS(=O)(=O)CCCC(=O)N1CCc2ccc(Oc3ccc(C(F)(F)F)cc3)cc2C1 [P-0052, 4-(methylsulfonyl)-1-(7-(4-(trifluoromethyl)phen-oxy)-3,4-dihydroisoquin-olin-2(1H)-yl)butan-1-one]	0.001 to 10
O=C(C(O)CO)N1CCc2ccc(Oc3ccc(C(F)(F)F)cc3)cc2C1 (stereo not shown) [P-0007, 2,3-dihydroxy-1-(7-(4-(trifluoromethyl)phen-oxy)-3,4-dihydroisoquin-olin-2(1H)-yl)propan-1-one]	0.001 to 10
O=C(Cc1n[nH]c(=O)[nH]1)N1CCc2ccc(Oc3ccc(C(F)(F)F)c(F)c3)cc2C1 [P-0160, 5-(2-(7-(3-fluoro-4-(trifluoromethyl)phen-oxy)-3,4-dihydroisoquin-olin-2(1H)-yl)-2-oxoeth-yl)-2,4-dihydro-3H-1,2,4-triazol-3-one]	0.001 to 10
C[S+]([O-])CCC(=O)N1CCc2ccc(Oc3ccc(C(F)(F)F)cc3)cc2C1 (stereo not shown) [P-0056, 3-(methylsulfinyl)-1-(7-(4-(trifluoromethyl)phen-oxy)-3,4-dihydroisoquin-olin-2(1H)-yl)propan-1-one]	0.001 to 10
CN(C)S(=O)(=O)N1CCc2ccc(Oc3ccc(C(F)(F)F)cc3)cc2C1 [P-0024, N,N-dimethyl-7-(4-(trifluoromethyl)phen-oxy)-3,4-dihydroiso-quinoline-2(1H)-sulfon-amide]	0.001 to 10
O=C(CCc1cnc[nH]1)N1CCc2c(cccc2Oc2ccc(C(F)(F)F)cc2)C1 [P-0243, 3-(1H-imidazol-5-yl)-1-(5-(4-(trifluoromethyl)-phenoxy)-3,4-dihydroiso-quinolin-2(1H)-yl)pro-pan-1-one]	0.001 to 10
O=C(CNS(=O)(=O)C1CC1)N1CCc2ccc(Oc3ccc(C(F)(F)F)c(F)c3)cc2C1 [P-0117, N-(2-(7-(3-fluoro-4-(trifluoromethyl)phen-oxy)-3,4-dihydroisoquin-olin-2(1H)-yl)-2-oxoeth-yl)cyclopropanesulfon-amide]	0.001 to 10
C=CC(=O)NCC(=O)N1CCc2ccc(Oc3ccc(C(F)(F)F)c(F)c3)cc2C1 [P-0115, N-(2-(7-(3-fluoro-4-(trifluoromethyl)phen-oxy)-3,4-dihydroisoquin-olin-2(1H)-yl)-2-oxoeth-yl)acrylamide]	0.001 to 10
CN(C(=O)N1CCc2ccc(Oc3ccc(C(F)(F)F)cc3)cc2C1)C1CCS(=O)(=O)C1 (stereo not shown) [P-0065, N-(1,1-dioxidotetra-hydrothiophen-3-yl)-N-methyl-7-(4-(trifluoro-methyl)phenoxy)-3,4-dihydroisoquinoline-2(1H)-carboxamide]	0.001 to 10
O=C(C1CCS(=O)(=O)C1)N1CCc2ccc(Oc3ccc(C(F)(F)F)cc3)cc2C1 (stereo not shown) [P-0045, (1,1-dioxidotetrahydro-thiophen-3-yl)(7-(4-(trifluoromethyl)phen-oxy)-3,4-dihydroisoquin-olin-2(1H)-yl)methanone]	0.001 to 10
